Values quoted from earlier work as cited in patent US7122627B2, “Lactam inhibitors of Hepatitis C virus NS3 protease” (Bristol-Myers Squibb Company, priority 1999, dated 2006).
[ ]: non-standard residue; d: D form.

Ac-Asp-Glu-Dpa-Glu-Cha-Cys-OH
Ki (HCV protease; reported in Biochemistry 37 (1998)): < 1 µM

Ac-D[dD]IVPC-OH
effectiveness compared with all L isomer (HCV protease; Llinas-Brunet et al. Bioorg. Med. Chem. Lett. 8 1713-1718 (1998)): more effective than its all “L” isomer

alpha interferon
patients in whom treatment is effective (Hepatitis C virus (HCV); current treatment, monotherapy): 15-20%

alpha interferon and ribavirin
patients with sustained efficacy (Hepatitis C virus (HCV); combination therapy, Poynard et al. Lancet 1998): 40%
